Data on one molecule can be found in US20260218121A1, “METHODS FOR CELL SURFACE REMODELING” (NANTES UNIVERSITÉ, priority 2023, published 2026).

What is called viability is a read-out of living cells in per cent, often relative to untreated cells.

For series [1] the following is noted: Ruben et al., biomacromolecules, 2019, 20, 2726; cited from earlier work.
A further series deals with DC2.4 cells. Nature of the series: Viability by live and dead assay (electro-bioconjugation or glyco-engineering). As to conditions: glyco-engineering (comparative), concentration of 250 μM, 72 h.

SMILES strings stand for the structures.

Consider `CC(=O)OC[C@H]1OC(OC(C)=O)[C@@H](NC(=O)CN=[N+]=[N-])[C@@H](OC(C)=O)[C@@H]1OC(C)=O` (some centres unmarked) [Ac4ManNAz], for which, in series [1], the “concentration that can be used” value is at most 100 µM. The same molecule showed a viability in the series with DC2.4 cells of 30%.
